Reference: the CheMixHub ionic liquid set

Test: xn = mol fraction of the nth substance listed

CN(C)c1ccccc1 + CCCC[n+]1ccn(C)c1.O=S(=O)([N-]S(=O)(=O)C(F)(F)F)C(F)(F)F
viscosity [mPa·s], 100 kPa
Conditions	288.15 K	293.15 K	298.15 K	303.15 K	308.15 K	313.15 K	318.15 K	323.15 K	328.15 K	333.15 K
x1 = 0.1	65.1	51.3	41.3	34	28.3	23.6	20.23	17.37	15.09	13.19
x1 = 0.2	52.2	41.4	33.6	28	23.4	19.61	16.9	14.6	12.74	11.19
x1 = 0.2993	40.5	32.4	26.6	22.26	18.75	15.88	13.77	11.97	10.49	9.29
x1 = 0.4001	30.4	24.6	20.44	17.16	14.66	12.5	10.93	9.56	8.44	7.52
x1 = 0.5005	21.72	17.79	15.06	12.73	10.96	9.44	8.34	7.36	6.55	5.86
x1 = 0.5993	15.08	12.54	10.77	9.21	8.02	7	6.21	5.53	4.98	4.49
x1 = 0.7	9.89	8.36	7.29	6.34	5.58	4.93	4.42	3.98	3.62	3.29
x1 = 0.7996	6.07	5.25	4.64	4.12	3.68	3.3	3	2.74	2.5	2.3
x1 = 0.8997	3.33	2.96	2.67	2.42	2.205	2.028	1.858	1.716	1.591	1.485
x1 = 1	1.536	1.415	1.302	1.206	1.123	1.056	0.981	0.92	0.865	0.819

CCCCCCCCCCCC[P+](CCCC)(CCCC)CCCC.c1c[n-]nn1 + COCCOCCOCCOCCOC
100 kPa
Conditions	viscosity [mPa·s]
278.15 K, x2 = 0.305	361
278.15 K, x2 = 0.596	73
288.15 K, x2 = 0.123	549
288.15 K, x2 = 0.395	124
293.15 K, x2 = 0.123	383
293.15 K, x2 = 0.495	59
298.15 K, x2 = 0.305	107

CCCCCCCCCCCCCCCC[N+](C)(C)C.[Br-] + CCO + O
298.2 K, 101.3 kPa
Conditions	electrical conductivity [S/m]
x1 = 1.26e-06, x2 = 0.05064	0.00062
x1 = 3.09e-06, x2 = 0.05064	0.00117
x1 = 5.13e-06, x2 = 0.05064	0.00178
x1 = 7.19e-06, x2 = 0.05064	0.00236
x1 = 9.2e-06, x2 = 0.05064	0.00294
x1 = 1.12e-05, x2 = 0.05064	0.0035
x1 = 1.326e-05, x2 = 0.05064	0.00406
x1 = 1.526e-05, x2 = 0.05064	0.00458
x1 = 1.726e-05, x2 = 0.05064	0.00501
x1 = 1.932e-05, x2 = 0.05064	0.0055
x1 = 2.135e-05, x2 = 0.05064	0.00592
x1 = 2.333e-05, x2 = 0.05064	0.00629
x1 = 2.537e-05, x2 = 0.05064	0.00663
x1 = 2.735e-05, x2 = 0.05064	0.00698
x1 = 2.922e-05, x2 = 0.05064	0.00728
x1 = 3.097e-05, x2 = 0.05064	0.00754
x1 = 3.328e-05, x2 = 0.05064	0.00788

COC(=O)OC + CCCCCCCC[N+](C)(CCCCCCCC)CCCCCCCC.[Cl-]
101 kPa, x1 = 1
Conditions	electrical conductivity [S/m]	viscosity [mPa·s]
298.15 K	5.2e-05	0.58
303.15 K	5.5e-05	–
308.15 K	4.9e-05	–
313.15 K	5.5e-05	0.45
318.15 K	5.2e-05	0.4

CCCCCCCCCCCCCCCC[N+](C)(C)C.[Br-] + O=C(CO)[C@@H](O)[C@H](O)[C@@H](O)CO + O
viscosity [mPa·s], 100 kPa
Conditions	298.15 K	308.15 K	318.15 K
x1 = 7.21e-06, x2 = 0	0.896	0.742	0.617
x1 = 1.442e-05, x2 = 0	0.898	0.744	0.617
x1 = 2.162e-05, x2 = 0	0.9	0.745	0.617

CCC(=O)[O-].OCC[NH2+]c1ccccc1 + O
303.15 K, 100 kPa
Conditions	electrical conductivity [S/m]
x2 = 0.01476	0.000353
x2 = 0.03394	0.000354
x2 = 0.0417	0.000355
x2 = 0.05414	0.000356

Cc1ncc(C[n+]2csc(CCO)c2C)c(N)n1.Cl.[Cl-] + CC[n+]1ccn(C)c1.O=S(=O)([O-])O + O
viscosity [mPa·s], 100 kPa
Conditions	x1 = 0.0002695, x2 = 0	x1 = 0.0005398, x2 = 0	x1 = 0.0008099, x2 = 0	x1 = 0.00108, x2 = 0	x1 = 0.00135, x2 = 0	x1 = 0.00162, x2 = 0	x1 = 0.001889, x2 = 0
293.15 K	1.01	1.02	1.03	1.03	1.04	1.05	1.06
298.15 K	0.9	0.91	0.92	0.93	0.93	0.94	0.95
303.15 K	0.81	0.81	0.82	0.83	0.84	0.85	0.86
308.15 K	0.73	0.73	0.74	0.75	0.76	0.76	0.77
313.15 K	0.66	0.67	0.68	0.68	0.69	0.7	0.71
318.15 K	0.61	0.61	0.62	0.63	0.64	0.64	0.65
